# Source: ChEMBL document CHEMBL5465560, “Selectivity Literature for EUbOPEN Chemogenomic Library” (2024)
# Where a chain is given by its changes, count along the chain named.
# Experiments:
# [1] = biological target: Serine/threonine-protein kinase 10 (Homo sapiens) (UniProt O94804); test: Selectivity interaction (KinomeScan (DiscoverX)) EUB0001049a STK10; conditions: at 1 µM
# [2] = system: T1, Receptor-type tyrosine-protein kinase FLT3 (Homo sapiens), P36888 [D835Y]; test: (§1) Selectivity interaction (KinomeScan (DiscoverX)) EUB0000666a FLT3; conditions: at 10 µM
# T1 sequence (whole entry): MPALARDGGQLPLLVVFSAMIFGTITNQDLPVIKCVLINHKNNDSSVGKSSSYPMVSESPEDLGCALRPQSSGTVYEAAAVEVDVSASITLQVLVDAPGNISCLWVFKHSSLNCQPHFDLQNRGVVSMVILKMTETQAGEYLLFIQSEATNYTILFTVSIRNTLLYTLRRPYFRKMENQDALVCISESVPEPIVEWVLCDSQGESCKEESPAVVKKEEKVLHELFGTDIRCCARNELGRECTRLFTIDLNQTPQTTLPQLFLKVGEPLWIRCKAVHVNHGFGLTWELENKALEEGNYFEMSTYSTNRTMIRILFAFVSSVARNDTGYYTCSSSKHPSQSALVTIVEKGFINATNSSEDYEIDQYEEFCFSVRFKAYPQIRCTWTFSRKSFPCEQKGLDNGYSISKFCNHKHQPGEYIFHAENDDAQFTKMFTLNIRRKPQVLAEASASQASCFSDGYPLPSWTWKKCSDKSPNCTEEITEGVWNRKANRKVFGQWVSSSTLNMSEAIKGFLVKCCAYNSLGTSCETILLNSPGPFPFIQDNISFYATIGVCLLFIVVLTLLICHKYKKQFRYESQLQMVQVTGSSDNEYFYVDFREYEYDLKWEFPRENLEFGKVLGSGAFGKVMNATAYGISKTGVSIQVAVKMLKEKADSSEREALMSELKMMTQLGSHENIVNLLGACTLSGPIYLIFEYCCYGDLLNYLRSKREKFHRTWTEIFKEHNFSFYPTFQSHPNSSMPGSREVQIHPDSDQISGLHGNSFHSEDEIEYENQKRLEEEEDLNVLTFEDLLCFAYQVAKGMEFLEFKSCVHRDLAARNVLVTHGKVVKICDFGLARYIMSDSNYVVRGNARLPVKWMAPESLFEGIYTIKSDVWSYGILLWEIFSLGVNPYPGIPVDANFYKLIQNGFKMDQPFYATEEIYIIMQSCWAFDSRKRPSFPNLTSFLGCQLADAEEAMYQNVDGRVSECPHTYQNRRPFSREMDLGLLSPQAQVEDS
# [3] = system: Receptor-type tyrosine-protein kinase FLT3 (Homo sapiens), P36888 [UNDEFINED MUTATION]; test: as §1; conditions: at 10 µM
# [4] = system: T2, Receptor-type tyrosine-protein kinase FLT3 (Homo sapiens), P36888 [D835H]; test: as §1; conditions: at 10 µM
# T2 sequence (whole entry): T1 sequence (whole entry) with Y835H
# [5] = biological target: Tyrosine-protein kinase Fes/Fps (Homo sapiens) (UniProt P07332); conditions: at 10 µM
# Tyrosine-protein kinase Fes/Fps (Homo sapiens), sequence (P07332 whole entry): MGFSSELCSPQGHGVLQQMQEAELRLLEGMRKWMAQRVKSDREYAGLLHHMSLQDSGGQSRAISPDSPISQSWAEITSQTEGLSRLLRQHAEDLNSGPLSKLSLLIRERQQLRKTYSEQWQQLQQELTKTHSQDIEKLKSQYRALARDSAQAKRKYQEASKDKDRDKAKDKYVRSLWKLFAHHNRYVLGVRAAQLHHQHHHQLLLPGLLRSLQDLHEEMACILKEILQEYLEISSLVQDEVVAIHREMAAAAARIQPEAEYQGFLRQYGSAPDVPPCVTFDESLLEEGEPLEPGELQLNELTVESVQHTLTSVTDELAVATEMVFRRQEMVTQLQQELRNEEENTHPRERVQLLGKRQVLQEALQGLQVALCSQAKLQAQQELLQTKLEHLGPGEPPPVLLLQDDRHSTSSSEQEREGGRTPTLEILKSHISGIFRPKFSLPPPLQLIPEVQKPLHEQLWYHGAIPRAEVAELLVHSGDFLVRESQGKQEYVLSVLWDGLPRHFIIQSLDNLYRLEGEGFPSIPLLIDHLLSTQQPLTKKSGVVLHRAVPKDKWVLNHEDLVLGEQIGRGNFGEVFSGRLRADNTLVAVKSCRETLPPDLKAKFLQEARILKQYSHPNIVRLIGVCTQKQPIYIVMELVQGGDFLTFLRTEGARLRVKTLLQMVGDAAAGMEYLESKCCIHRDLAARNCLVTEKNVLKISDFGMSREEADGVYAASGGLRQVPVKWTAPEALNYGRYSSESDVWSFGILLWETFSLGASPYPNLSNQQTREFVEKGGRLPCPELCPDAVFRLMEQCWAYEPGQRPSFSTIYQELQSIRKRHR
# [6] = biological target: Myosin-IIIa (Homo sapiens) (UniProt Q8NEV4); test: Selectivity interaction (KinomeScan (DiscoverX)) EUB0001619a MYO3A; conditions: at 1 µM
# Myosin-IIIa (Homo sapiens), sequence (Q8NEV4 whole entry): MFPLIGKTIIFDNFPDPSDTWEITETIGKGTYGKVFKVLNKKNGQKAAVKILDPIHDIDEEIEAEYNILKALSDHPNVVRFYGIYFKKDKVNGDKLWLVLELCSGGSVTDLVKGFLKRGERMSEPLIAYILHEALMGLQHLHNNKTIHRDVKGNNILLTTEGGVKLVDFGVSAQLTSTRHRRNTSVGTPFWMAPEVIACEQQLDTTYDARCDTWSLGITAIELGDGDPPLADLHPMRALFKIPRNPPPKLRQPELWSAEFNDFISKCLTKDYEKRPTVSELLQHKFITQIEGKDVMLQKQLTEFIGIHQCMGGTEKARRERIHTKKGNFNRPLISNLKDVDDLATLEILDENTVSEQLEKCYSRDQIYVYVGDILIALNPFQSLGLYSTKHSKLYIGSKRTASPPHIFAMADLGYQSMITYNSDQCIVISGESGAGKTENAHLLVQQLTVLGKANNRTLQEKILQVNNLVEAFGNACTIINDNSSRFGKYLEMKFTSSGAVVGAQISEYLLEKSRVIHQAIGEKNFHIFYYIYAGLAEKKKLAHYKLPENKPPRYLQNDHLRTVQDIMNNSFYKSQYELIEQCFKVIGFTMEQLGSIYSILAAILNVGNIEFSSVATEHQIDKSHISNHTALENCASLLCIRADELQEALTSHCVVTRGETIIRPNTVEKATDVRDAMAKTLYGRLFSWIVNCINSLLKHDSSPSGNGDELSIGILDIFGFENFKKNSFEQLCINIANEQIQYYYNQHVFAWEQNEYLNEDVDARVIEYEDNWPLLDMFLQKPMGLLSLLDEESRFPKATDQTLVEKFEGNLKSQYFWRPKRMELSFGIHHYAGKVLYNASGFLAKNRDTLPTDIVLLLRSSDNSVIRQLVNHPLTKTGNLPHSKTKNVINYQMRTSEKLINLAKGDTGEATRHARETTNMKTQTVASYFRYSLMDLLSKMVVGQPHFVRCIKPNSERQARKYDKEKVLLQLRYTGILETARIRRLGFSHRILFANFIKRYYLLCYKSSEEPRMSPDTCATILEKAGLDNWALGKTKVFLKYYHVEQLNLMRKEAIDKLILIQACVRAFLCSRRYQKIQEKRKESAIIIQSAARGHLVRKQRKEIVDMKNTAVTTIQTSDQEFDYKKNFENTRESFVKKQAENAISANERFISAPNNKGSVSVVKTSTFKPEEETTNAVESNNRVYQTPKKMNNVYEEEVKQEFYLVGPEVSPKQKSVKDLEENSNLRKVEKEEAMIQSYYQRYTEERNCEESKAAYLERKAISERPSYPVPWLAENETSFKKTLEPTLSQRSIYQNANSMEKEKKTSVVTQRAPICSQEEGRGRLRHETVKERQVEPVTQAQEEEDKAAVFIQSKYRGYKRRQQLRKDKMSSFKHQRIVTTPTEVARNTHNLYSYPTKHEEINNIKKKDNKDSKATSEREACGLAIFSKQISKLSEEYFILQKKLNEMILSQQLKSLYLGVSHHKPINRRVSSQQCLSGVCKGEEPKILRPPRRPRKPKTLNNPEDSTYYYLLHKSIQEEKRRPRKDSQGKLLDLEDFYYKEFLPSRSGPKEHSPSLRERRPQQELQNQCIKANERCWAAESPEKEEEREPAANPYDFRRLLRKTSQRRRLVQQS
# [7] = biological target: T3, Non-receptor tyrosine-protein kinase TNK1 (Homo sapiens) (UniProt Q13470); test: Selectivity interaction (ProQinase) EUB0000171b TNK1
# T3 sequence (whole entry): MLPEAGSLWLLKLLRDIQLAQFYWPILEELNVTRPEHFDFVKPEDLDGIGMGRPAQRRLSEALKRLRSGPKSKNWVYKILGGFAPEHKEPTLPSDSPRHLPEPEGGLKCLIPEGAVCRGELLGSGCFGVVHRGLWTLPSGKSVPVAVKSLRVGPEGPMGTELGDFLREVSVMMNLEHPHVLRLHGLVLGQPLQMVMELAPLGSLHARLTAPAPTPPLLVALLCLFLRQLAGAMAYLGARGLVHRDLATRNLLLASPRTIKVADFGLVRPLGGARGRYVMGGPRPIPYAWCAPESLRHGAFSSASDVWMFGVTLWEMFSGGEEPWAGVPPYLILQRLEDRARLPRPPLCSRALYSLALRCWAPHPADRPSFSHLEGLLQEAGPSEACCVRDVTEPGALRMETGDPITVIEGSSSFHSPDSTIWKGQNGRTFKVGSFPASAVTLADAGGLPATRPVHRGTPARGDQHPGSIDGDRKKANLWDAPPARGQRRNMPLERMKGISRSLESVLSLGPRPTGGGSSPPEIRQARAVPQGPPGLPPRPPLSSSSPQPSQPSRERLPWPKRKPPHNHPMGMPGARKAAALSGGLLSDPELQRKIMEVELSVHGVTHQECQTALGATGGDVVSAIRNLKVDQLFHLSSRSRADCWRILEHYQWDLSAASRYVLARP
# Insulin receptor = Insulin receptor (Homo sapiens, UniProt P06213); test: Selectivity interaction (ProQinase) EUB0000171b INSR; conditions: at 5 µM
# Insulin receptor, sequence (P06213 28-758 limits assumed): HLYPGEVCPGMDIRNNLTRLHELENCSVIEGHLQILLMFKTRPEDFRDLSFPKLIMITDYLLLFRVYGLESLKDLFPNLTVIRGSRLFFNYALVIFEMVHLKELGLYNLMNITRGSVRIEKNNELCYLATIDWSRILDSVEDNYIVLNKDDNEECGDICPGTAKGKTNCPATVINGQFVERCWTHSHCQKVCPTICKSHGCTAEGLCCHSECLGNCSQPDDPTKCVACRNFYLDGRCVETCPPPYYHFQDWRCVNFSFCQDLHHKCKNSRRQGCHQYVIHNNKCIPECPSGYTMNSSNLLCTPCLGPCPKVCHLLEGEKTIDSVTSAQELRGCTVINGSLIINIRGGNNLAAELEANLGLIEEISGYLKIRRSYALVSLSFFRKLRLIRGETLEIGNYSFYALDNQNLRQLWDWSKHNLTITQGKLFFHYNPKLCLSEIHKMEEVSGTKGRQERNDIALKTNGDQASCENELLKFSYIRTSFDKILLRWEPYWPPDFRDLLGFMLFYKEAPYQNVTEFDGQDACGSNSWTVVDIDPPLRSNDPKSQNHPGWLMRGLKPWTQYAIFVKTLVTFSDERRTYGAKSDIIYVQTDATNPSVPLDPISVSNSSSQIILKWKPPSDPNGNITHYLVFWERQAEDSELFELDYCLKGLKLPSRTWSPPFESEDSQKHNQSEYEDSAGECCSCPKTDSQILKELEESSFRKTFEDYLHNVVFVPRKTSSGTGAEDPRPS
# Insulin receptor, sequence (P06213 763-1382 limits assumed): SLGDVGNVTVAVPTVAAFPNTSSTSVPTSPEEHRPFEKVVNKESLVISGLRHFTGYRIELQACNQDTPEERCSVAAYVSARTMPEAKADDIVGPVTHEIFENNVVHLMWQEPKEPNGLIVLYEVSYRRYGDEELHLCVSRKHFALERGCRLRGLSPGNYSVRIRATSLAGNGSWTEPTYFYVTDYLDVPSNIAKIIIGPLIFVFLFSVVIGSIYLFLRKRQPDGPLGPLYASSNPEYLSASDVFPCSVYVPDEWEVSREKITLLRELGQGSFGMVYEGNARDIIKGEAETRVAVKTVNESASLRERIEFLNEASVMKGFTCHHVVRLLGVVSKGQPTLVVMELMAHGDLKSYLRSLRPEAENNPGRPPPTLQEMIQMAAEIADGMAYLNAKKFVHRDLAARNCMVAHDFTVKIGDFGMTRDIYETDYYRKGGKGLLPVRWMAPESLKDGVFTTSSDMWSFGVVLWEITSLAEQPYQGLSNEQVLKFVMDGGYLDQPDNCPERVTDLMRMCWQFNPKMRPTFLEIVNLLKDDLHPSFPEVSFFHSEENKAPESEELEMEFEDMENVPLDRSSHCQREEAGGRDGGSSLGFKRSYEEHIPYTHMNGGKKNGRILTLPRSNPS
# Serine/threonine-protein kinase 10 (Homo sapiens), sequence (O94804 whole entry, looked up): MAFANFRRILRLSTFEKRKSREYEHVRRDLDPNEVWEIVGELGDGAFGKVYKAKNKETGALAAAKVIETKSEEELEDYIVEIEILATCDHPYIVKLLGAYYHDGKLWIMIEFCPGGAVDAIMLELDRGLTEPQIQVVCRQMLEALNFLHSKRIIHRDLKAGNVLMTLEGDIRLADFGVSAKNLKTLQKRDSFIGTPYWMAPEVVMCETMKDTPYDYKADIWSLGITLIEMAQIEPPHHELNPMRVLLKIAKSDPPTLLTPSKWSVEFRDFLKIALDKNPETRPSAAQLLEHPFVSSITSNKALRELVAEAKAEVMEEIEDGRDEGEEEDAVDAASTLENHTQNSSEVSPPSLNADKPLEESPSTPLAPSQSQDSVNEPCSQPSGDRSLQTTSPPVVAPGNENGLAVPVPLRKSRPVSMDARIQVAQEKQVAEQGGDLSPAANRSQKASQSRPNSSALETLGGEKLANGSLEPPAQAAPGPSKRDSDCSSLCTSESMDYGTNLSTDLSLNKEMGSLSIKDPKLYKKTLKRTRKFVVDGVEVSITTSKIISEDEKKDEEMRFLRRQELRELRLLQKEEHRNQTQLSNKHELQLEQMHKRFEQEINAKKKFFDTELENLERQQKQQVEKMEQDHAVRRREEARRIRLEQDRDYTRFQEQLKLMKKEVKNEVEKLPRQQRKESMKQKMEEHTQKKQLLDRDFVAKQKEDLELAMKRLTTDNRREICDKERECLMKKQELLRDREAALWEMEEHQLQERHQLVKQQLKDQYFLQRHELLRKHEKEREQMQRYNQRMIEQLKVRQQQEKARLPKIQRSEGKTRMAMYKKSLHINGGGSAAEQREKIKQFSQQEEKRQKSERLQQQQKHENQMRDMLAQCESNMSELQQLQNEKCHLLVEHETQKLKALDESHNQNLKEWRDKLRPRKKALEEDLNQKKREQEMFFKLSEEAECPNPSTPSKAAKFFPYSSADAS
smiles,measurement,setting,value
COc1cc(Nc2nc(C)cc(-c3cnn4nc(OC)ccc34)n2)cc(C(F)(F)F)c1,% of control,[1],86%
O=C(NOC[C@H](O)CO)c1ccc(F)c(F)c1Nc1ccc(I)cc1F,% of control,[2],100%
same,% of control,[3],100%
same,% of control,[4],87%
CCN(CC)CCCCNc1ncc2cc(-c3cc(OC)cc(OC)c3)c(NC(=O)NC(C)(C)C)nc2n1,% of control,[5],100%
N#Cc1cccc(-c2c[nH]c3ncnc(N4CCOCC4)c23)c1,% of control,[6],94%
C=CC(=O)Nc1cccc(C(=O)Nc2ccc(Nc3cc(-c4[nH]c(SC)nc4C)ccn3)cc2)c1,% of control,[7]; at 1 µM,91%
same,% of control,[7]; at 5 µM,61%
same,% of control,Insulin receptor,72%
